Experimental data taken from ChEMBL document CHEMBL4732153, “Phenyl 4-(2-oxopyrrolidin-1-yl)benzenesulfonates and phenyl 4-(2-oxopyrrolidin-1-yl)benzenesulfonamides as new antimicrotubule agents targeting the colchicine-binding site” (Eur J Med Chem, 2021).
Activity calls are given as the source filed them. The rule behind the calls is not given here.

Experiments:
M21 [1] = assay: Cell cycle arrest in human M21 cells assessed as accumulation at SubG1 phase at 2 to 5 times IC50 measured after 24 hrs by DAPI staining based flow cytometry (reference value: 5%); type: functional
MCF7 = assay: Antiproliferative activity against human MCF7 cells assessed as reduction in cell viability measured after 48 hrs by sulforhodamine B assay; type: functional, cell-based; conditions: MCF7, 48 h
M21 [2] = assay: Cell cycle arrest in human M21 cells assessed as accumulation at G2/M phase at 2 to 5 times IC50 measured after 24 hrs by DAPI staining based flow cytometry (reference value: 13.4%); type: functional
M21 [3] = assay: Cell cycle arrest in human M21 cells assessed as accumulation at G0/G1 phase at 2 to 5 times IC50 measured after 24 hrs by DAPI staining based flow cytometry (reference value: 65.5%); type: functional
M21 [4] = assay: Cell cycle arrest in human M21 cells assessed as accumulation at S phase at 2 to 5 times IC50 measured after 24 hrs by DAPI staining based flow cytometry (reference value: 16.1%); type: functional
HT-29 = assay: Antiproliferative activity against human HT-29 cells assessed as reduction in cell viability measured after 48 hrs by sulforhodamine B assay; type: functional, cell-based; conditions: HT-29, 48 h
[5] = target: Tubulin beta (Homo sapiens) (UniProt P68371+Q9H4B7+Q13509+P04350+Q3ZCM7+P07437+Q13885+Q9BVA1+Q9BUF5+A6NNZ2); assay: Inhibition of EBI binding to colchicine-binding site of beta-tubulin in human M21 cells at 100 to 1000 times IC50 preincubated for 2 hrs followed by EBI addition and measured after 1.5 hrs by Western blot analysis; type: cell-based; conditions: time 3.5 hrs
HT-1080 = assay: Antiproliferative activity against human HT-1080 cells assessed as reduction in cell viability measured after 48 hrs by sulforhodamine B assay; type: functional, cell-based; conditions: HT-1080, 48 h
Tubulin (Homo sapiens) [6] = target: T1, Tubulin (Homo sapiens) (UniProt P68371+Q9H4B7+P0DPH7+P68366+Q13509+Q71U36+P04350+Q3ZCM7+P07437+P68363+Q9BQE3+Q6PEY2+Q13885+Q9BVA1+Q9BUF5); assay: Disruption of microtubule polymerization in human M21 cells at 5 times IC50 measured after 24 hrs by DAPI staining based immunofluorescence microscopic analysis; type: cell-based
Tubulin (Homo sapiens) [7] = target: T1, Tubulin (Homo sapiens); assay: Disruption of microtubule polymerization in human M21 cells assessed as induction of mitotic abnormalities at 5 times IC50 measured after 24 hrs by DAPI staining based immunofluorescence microscopic analysis; type: cell-based
M21 [8] = assay: Antiproliferative activity against human M21 cells assessed as reduction in cell viability measured after 48 hrs by sulforhodamine B assay; type: functional, cell-based; conditions: M21, 48 h
[9] = Toxicity in chick embryo assessed as death at 1 ug, iv incubated for 7 days relative to control; type: organism-based; conditions: in vivo, at 1 µg, time 7 day, read-out: Activity
Sus scrofa [10] = species: Sus scrofa; assay: Inhibition of porcine brain tubulin polymerization at 15 uM measured after 60 mins by fluorescence assay
[11] = Solubility of compound in DMSO at 15 uM; type: physicochemical
M21 [12] = assay: Cell cycle arrest in human M21 cells assessed as accumulation at G2/M phase at 11 nM measured after 24 hrs by DAPI staining based flow cytometry (reference value: 13.4%); type: functional
M21 [13] = assay: Cell cycle arrest in human M21 cells assessed as accumulation at SubG1 phase at 11 nM measured after 24 hrs by DAPI staining based flow cytometry (reference value: 5%); type: functional
M21 [14] = assay: Cell cycle arrest in human M21 cells assessed as accumulation at S phase at 11 nM measured after 24 hrs by DAPI staining based flow cytometry (reference value: 16.1%); type: functional
M21 [15] = assay: Cell cycle arrest in human M21 cells assessed as accumulation at G0/G1 phase at 11 nM measured after 24 hrs by DAPI staining based flow cytometry (reference value: 65.5%); type: functional
[16] = Solubility of compound in DMSO at 3 uM; type: physicochemical
Sus scrofa [17] = species: Sus scrofa; assay: Inhibition of porcine brain tubulin polymerization at 3 uM measured after 60 mins by fluorescence assay
[18] = Toxicity in chick embryo assessed as death at 10 ug, iv incubated for 7 days relative to control; type: organism-based; conditions: in vivo, at 10 µg, time 7 day, read-out: Activity
Sus scrofa [19] = species: Sus scrofa; assay: Inhibition of porcine brain tubulin polymerization at 30 uM measured after 60 mins by fluorescence assay
[20] = Toxicity in chick embryo assessed as death at 20 ug, iv incubated for 7 days relative to control; type: organism-based; conditions: in vivo, at 20 µg, time 7 day, read-out: Activity
[21] = Solubility of compound in DMSO at 30 uM; type: physicochemical

| SMILES | IC50 (MCF7) [nM] | IC50 (HT-29) [nM] | IC50 (HT-1080) [nM] | Activity (M21 [1]) [%] | Activity (M21 [2]) [%] | Activity (M21 [3]) [%] | Activity (M21 [4]) [%] | IC50 (M21 [8]) [nM] | further results |
| --- | --- | --- | --- | --- | --- | --- | --- | --- | --- |
| O=C1CCCN1c1ccc(S(=O)(=O)Nc2cccc(I)c2)cc1 | 600 | 390 | 860 | 6.8 | 74.2 | 11.2 | 7.8 | 330 | Inhibition of EBI binding (active/inactive) [5]: Active; Activity (Tubulin (Homo sapiens) [6]): Active; Activity (Tubulin (Homo sapiens) [7]): Active |
| COc1ccc(NS(=O)(=O)c2ccc(N3CCCC3=O)cc2)cc1 | 4600 | 4800 | 8500 |  |  |  |  | 7500 |  |
| COc1cc(NS(=O)(=O)c2ccc(N3CCCC3=O)cc2)cc(OC)c1OC | 88 | 80 | 130 | 3.9 | 80.4 | 8.2 | 7.5 | 56 | mortality at 168 h [9]: 8%; Inhibition of EBI binding (active/inactive) [5]: Active; inhibition (Sus scrofa [10]): Active; Activity (Tubulin (Homo sapiens) [6]): Active; Activity (Tubulin (Homo sapiens) [7]): Active; solubility [11]: Soluble |
| COc1ccc(/C=C\c2cc(OC)c(OC)c(OC)c2)cc1O [COMBRETASTATIN A4] | 1.9 | 5.1 | 2.2 |  |  |  |  | 2.2 | Activity (M21 [12]): 79.5%; Activity (M21 [13]): 4.1%; Inhibition of EBI binding (active/inactive) [5]: Active; inhibition (Sus scrofa [10]): Active; Activity (M21 [14]): 7.2%; Activity (M21 [15]): 9.2% |
| O=C1CCCN1c1ccc(S(=O)(=O)Nc2ccccc2)cc1 | 2800 | 3400 | 4900 |  |  |  |  | 5600 |  |
| O=C1CCCN1c1ccc(S(=O)(=O)Nc2cc(Br)cc(Br)c2)cc1 | 520 | 390 | 590 | 4.2 | 81.2 | 8.3 | 6.3 | 280 | solubility [16]: Soluble; Inhibition of EBI binding (active/inactive) [5]: Active; Activity (Tubulin (Homo sapiens) [6]): Active; inhibition (Sus scrofa [17]): Active; Activity (Tubulin (Homo sapiens) [7]): Active; mortality at 168 h [18]: 25% |
| O=C1CCCN1c1ccc(S(=O)(=O)Oc2cc(Br)cc(Br)c2)cc1 | 11 | 10 | 11 | 3.9 | 79.7 | 9.4 | 7 | 8.7 | solubility [16]: Soluble; Inhibition of EBI binding (active/inactive) [5]: Active; Activity (Tubulin (Homo sapiens) [6]): Active; inhibition (Sus scrofa [17]): Active; Activity (Tubulin (Homo sapiens) [7]): Active; mortality at 168 h [18]: 18% |
| O=C1CCCN1c1ccc(S(=O)(=O)Nc2ccc(-c3ccccc3)cc2)cc1 | 7000 | 5400 | 8800 |  |  |  |  | 4700 |  |
| O=C1CCCN1c1ccc(S(=O)(=O)Nc2cccc(Cl)c2)cc1 | 560 | 680 | 680 | 10.6 | 67.8 | 13.7 | 7.9 | 770 |  |
| COc1cc(OS(=O)(=O)c2ccc(N3CCCC3=O)cc2)cc(OC)c1OC | 17 | 16 | 11 | 3.8 | 81.8 | 8.3 | 6.1 | 13 | Inhibition of EBI binding (active/inactive) [5]: Active; Activity (Tubulin (Homo sapiens) [6]): Active; Activity (Tubulin (Homo sapiens) [7]): Active |
| COc1ccc(NS(=O)(=O)c2ccc(N3CCCC3=O)cc2)cc1OC | 2600 | 890 | 2250 |  |  |  |  | 5100 |  |
| O=C1CCCN1c1ccc(S(=O)(=O)Nc2cccc(Br)c2)cc1 | 830 | 590 | 1300 |  |  |  |  | 950 |  |
| COc1ccccc1OS(=O)(=O)c1ccc(N2CCCC2=O)cc1 | 890 | 1200 | 1300 |  |  |  |  | 1300 |  |
| O=C1CCCN1c1ccc(S(=O)(=O)Oc2cccc(I)c2)cc1 | 22 | 59 | 40 | 4.3 | 81.4 | 7.8 | 6.5 | 88 |  |
| CC(C)c1ccccc1OS(=O)(=O)c1ccc(N2CCCC2=O)cc1 | 500 | 780 | 840 |  |  |  |  | 910 |  |
| COc1cc(OC)cc(OS(=O)(=O)c2ccc(N3CCCC3=O)cc2)c1 | 21 | 39 | 26 | 12.1 | 45.6 | 32.7 | 9.6 | 12 | inhibition (Sus scrofa [19]): Active; Inhibition of EBI binding (active/inactive) [5]: Active; mortality at 168 h [20]: 18%; solubility [21]: Soluble; Activity (Tubulin (Homo sapiens) [6]): Active; Activity (Tubulin (Homo sapiens) [7]): Active |
| O=C1CCCN1c1ccc(S(=O)(=O)Oc2cccc(Cl)c2)cc1 | 140 | 120 | 180 |  |  |  |  | 110 |  |

Further molecules by falling IC50 (MCF7), results first:

| IC50 (MCF7) [nM] | IC50 (HT-29) [nM] | IC50 (HT-1080) [nM] | SMILES | Activity (M21 [1]) [%] | Activity (M21 [2]) [%] | Activity (M21 [3]) [%] | Activity (M21 [4]) [%] | IC50 (M21 [8]) [nM] | further results |
| --- | --- | --- | --- | --- | --- | --- | --- | --- | --- |
| 16000 | 12000 | 21000 | CC(C)c1ccccc1NS(=O)(=O)c1ccc(N2CCCC2=O)cc1 |  |  |  |  | 9900 |  |
| 4600 | 4800 | 8500 | COc1ccc(OS(=O)(=O)c2ccc(N3CCCC3=O)cc2)cc1 |  |  |  |  | 7500 |  |
| 1800 | 2400 | 3200 | COc1ccccc1NS(=O)(=O)c1ccc(N2CCCC2=O)cc1 |  |  |  |  | 3000 |  |
| 1700 | 2900 | 2600 | O=C1CCCN1c1ccc(S(=O)(=O)Oc2ccc(-c3ccccc3)cc2)cc1 |  |  |  |  | 2300 |  |
| 1100 | 860 | 1300 | COc1cccc(NS(=O)(=O)c2ccc(N3CCCC3=O)cc2)c1 |  |  |  |  | 940 |  |
| 960 | 730 | 1200 | O=C1CCCN1c1ccc(S(=O)(=O)Nc2ccccc2-c2ccccc2)cc1 | 3 | 25.1 | 59.8 | 12.1 | 430 |  |
| 690 | 1300 | 990 | COc1cc(NS(=O)(=O)c2ccc(N3CCCC3=O)cc2)cc(OC)c1 | 4.9 | 42.2 | 43.1 | 9.8 | 390 |  |
| 680 | 5400 | 840 | O=C1CCCN1c1ccc(S(=O)(=O)Nc2cccc(F)c2)cc1 |  |  |  |  | 2300 |  |
| 650 | 480 | 920 | O=C1CCCN1c1ccc(S(=O)(=O)Oc2ccccc2)cc1 |  |  |  |  | 460 |  |
| 370 | 310 | 810 | O=C1CCCN1c1ccc(S(=O)(=O)Oc2cccc(F)c2)cc1 |  |  |  |  | 300 |  |
| 290 | 690 | 590 | COc1ccc(OS(=O)(=O)c2ccc(N3CCCC3=O)cc2)cc1OC |  |  |  |  | 650 |  |
| 210 | 350 | 370 | O=C1CCCN1c1ccc(S(=O)(=O)Oc2ccccc2-c2ccccc2)cc1 |  |  |  |  | 190 |  |
| 100 | 120 | 190 | COc1cccc(OS(=O)(=O)c2ccc(N3CCCC3=O)cc2)c1 |  |  |  |  | 120 |  |
| 60 | 60 | 80 | O=C1CCCN1c1ccc(S(=O)(=O)Oc2cccc(Br)c2)cc1 | 13.3 | 53.1 | 24 | 9.6 | 40 |  |
